The subject of assay [1] is faecal cholesterol output. The assay is described as follows: Faecal cholesterol excretion after PI or PC injection. Type of assay: in vivo, rabbit. On the procedure:
Rabbits are injected with 40 μmol PI or PC vesicles containing 400 μCi […]. Animals are sacrificed at 30 min, and bile is aspirated from the gall bladder. In addition the livers are harvested, homogenized and tissue radioactivity determined. Sterol excretion in the faeces is measured similarly except that faecal cholesterol levels are measured over a time period of 96 hours. Referring now to FIG. 7, there is graphically depicted the effect of PI injection associated with sterol excretion. […] PC injection into a rabbit had no effect on cholesterol excretion, while PI injection enhanced faecal cholesterol output by about 300% at 2 days post injection. The increase in cholesterol output returned to normal by about day 4.

The target of assay [2] is T1, lecithin:cholesterol acyltransferase (LCAT) (Oryctolagus cuniculus, UniProt P53761).
T1 construct: endogenous LCAT activity is reduced to about 18% that of normal; from tissue; host or cells: plasma of PI- or PC-injected rabbits
T1 sequence (P53761 25-440): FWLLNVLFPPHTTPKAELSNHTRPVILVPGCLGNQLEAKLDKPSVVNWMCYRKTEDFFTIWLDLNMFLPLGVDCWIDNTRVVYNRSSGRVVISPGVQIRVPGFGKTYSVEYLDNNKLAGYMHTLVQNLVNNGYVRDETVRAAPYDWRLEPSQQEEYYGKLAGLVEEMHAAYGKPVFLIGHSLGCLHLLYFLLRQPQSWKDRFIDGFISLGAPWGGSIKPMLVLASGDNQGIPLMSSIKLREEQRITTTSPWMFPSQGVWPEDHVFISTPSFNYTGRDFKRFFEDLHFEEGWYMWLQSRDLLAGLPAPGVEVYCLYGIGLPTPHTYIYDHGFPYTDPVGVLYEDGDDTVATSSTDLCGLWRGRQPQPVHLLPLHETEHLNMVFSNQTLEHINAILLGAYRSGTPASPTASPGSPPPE
The assay is described as follows: Plasma cholesterol esterification by LCAT after injection of PC or PI. The class given is in vivo, rabbit. As for the experimental part: Male New Zealand white rabbits (3.5-4.0 kg) are fasted for 12 hours prior to injection and remain fasted until after data for the final time point is taken. Rabbits have free access to water during this time. A catheter is inserted into the marginal ear vein and blood samples are collected into tubes containing 7.5% (K3) EDTA solution at the desired time points. A pre-injection blood sample is taken and the vesicle solution of either PI (n=4), or PC (n=2) or saline (n=1) is injected into the marginal ear vein. A sample of blood is removed at 10, 30 min, 1, 3, 6 and 24 h after the injection. All blood samples are placed on ice and then centrifuged at 3000 rpm for 15 min at 4° C. to separate the plasma. In order to ensure that lecithin:cholesterol acyl transferase (LCAT) is inhibited in the stored plasma, iodoacetamide (150 mM) is added to plasma samples as taught by Guerin et al. (1994). The effect of PI on LCAT activity is examined using plasma samples that are not treated with iodoacetamide. 400 μL aliquots of plasma for each time point are incubated for 30 min with 10 μCi of [^3H]-FC on filter paper discs (Dobiasova et al., 1991) at 37° C. and the reaction is terminated with the addition of 2 mL ethanol. Reaction products are extracted in hexane and the amount of [^3H] associated with CE and FC is determined by thin layer chromatography. […] However, endogenous LCAT activity is reduced to about 18% that of normal (PC injected control) after about 10 min post injection of PI. Also, PI injection reduces the fractional rate of cholesterol esterification from about 45% to about 8%, of initial values, per hour. […] To investigate the effect of PI on the production and transport of CE in the plasma, the amount of radioactive CE was measured at each time point (data not shown). […] Rather it appears that PI may modify intravascular cholesterol levels by mobilizing a cellular cholesterol pool.

We go through one molecule from US7390783B2, “Charged phospholipid compositions and methods for their use” (Ottawa Heart Institute Research Corporation, priority 2000, dated 2008).

With `CCCCCCCC/C=C\CCCCCCCC(=O)O[C@H](COC(=O)CCCCCCCCCCCCCCC)COP(=O)(O)O[C@@H]1[C@H](O)[C@H](O)[C@@H](O)[C@H](O)[C@H]1O` [PI, 1-palmitoyl-2-oleoyl phosphatidylinositol], the “faecal cholesterol output enhanced by” value in assay [1] (2 days post injection) is reported as “about 300%”. In assay [1] (rabbit, in vivo), the “increase in cholesterol output returned to normal by” value was around 4 days. The “endogenous LCAT activity, of normal (PC injected control)” value in assay [2] (about 10 min post injection) is on record as “about 18%”. Moreover, the “LCAT activity returned to, of normal” value in assay [2] (after a period of time following vesicle injection) was “about 75%”. Also, in assay [2] (after injection of vesicles), the “effect on LCAT activity / cholesteryl esterification” value is “almost completely inhibits”. Also, in assay [2] (initial time points, vs PC injected rabbit), the “less [3H]-CE in plasma than in the control” value was 85%. Moreover, the “fractional rate of cholesterol esterification” value in assay [2] (of initial values, per hour, reduced from about 45%) is recorded as “about 8%”.
